Data on 20 compounds can be found in US20230310428A1, “EGFR INHIBITOR AND PREPARATION METHOD AND USE THEREOF” (HONGYUN BIOTECH CO., LTD., priority 2020, published 2023).

What all share (experiment): Growth inhibitory activity of compounds on BaF3 cell lines stably transfected with kinase (MTS, 48 h)
What all share (type): cell-based

Experiment [1] has as its target T1, various mutants of kinase EGFR (BaF3 cell lines stably transfected with kinase) (Homo sapiens, UniProt P00533).
T1 construct: other: BaF3 cells stably transfected with EGFR Δ19Del; MTS, 48 h; other: BaF3 cell line stably transfected with EGFR Δ19Del
The note with it: BaF3 cells stably transfected with EGFR Δ19Del, read-out: IC50, growth inhibition, Δ19Del. The procedure: (§1) The activity of compounds against various mutants of kinase EGFR was evaluated by their effect of inhibiting growth of BaF3 cell lines stably transfected with kinase. The specific test method was given as follows:
(§2) 1) Culture medium: DMEM (Dulbecco’s modified eagle medium) or RPMI 1640 (containing 10% fetal bovine serum, 100 µg/mL ampicillin, 100 µg/mL streptomycin).
(§3) 2) Reagent: MTS reaction solution (containing 2 mg/mL of MTS [3-(4,5-dimethylthiazol-2-yl)-5-(3-carboxymethoxyphenyl)-2-(4-sulfophenyl)-2H-tetrazoliu m, inner Salt]; 100 µg/mL of PES ([…])).
(§4) 3) Compound test: cells were incubated into a 96-well culture plate, the volume of cytosol was 90 µL, and then 10 µL of the compound at each gradient concentration was added. That is, the highest concentration was 10 µM, which was diluted stepwise by ⅓, and 8 concentration points were set in total; 0.1% DMSO (dimethyl sulfoxide) was contained in the system. The cell plate with uniformly mixed compound was cultured in a cell culture incubator (37° C.; 5% CO2) for 48 h, then 20 µL of MTS reaction solution was added, uniformly mixed and incubated in the cell culture incubator (37° C.; 5% CO2) for 1-4 h. OD values at 490 nm were measured by a microplate reader (VARIOSKAN FLASH, Thermo). Two parallels were set in each group of experiments, with 0.1% (a final concentration) DMSO as a negative control, and a culture medium without cells and compounds as a blank control. The cell growth inhibition rate was calculated by the following formula: […]
(§5) 4) IC50 calculation: The semi-inhibitory concentration of the compounds acting on cells was calculated using GradPad Prism 5 software according to the measured cell growth inhibition rate.

The target of experiment [2] is T2, various mutants of kinase EGFR (BaF3 cell lines stably transfected with kinase) (Homo sapiens, UniProt P00533, T790M, form not given).
T2 construct: other: BaF3 cells stably transfected with EGFR Δ19Del/T790M; MTS, 48 h; other: BaF3 cell line stably transfected with EGFR Δ19Del/T790M; MTS, 48
The note with it: BaF3 cells stably transfected with EGFR Δ19Del/T790M, read-out: IC50, growth inhibition, Δ19Del/T790M. How it is done: as §1, §2, §3, §4, §5

For experiment [3], the target named is T3, various mutants of kinase EGFR (BaF3 cell lines stably transfected with kinase) (Homo sapiens, UniProt P00533, L858R).
T3 construct: expressed in transfected cells; host or cells: BaF3
The note with it: BaF3 cells stably transfected with EGFR L858R, read-out: IC50, growth inhibition, L858R. The procedure: as §1, §2, §3, §4, §5

The target in experiment [4] is T4, various mutants of kinase EGFR (BaF3 cell lines stably transfected with kinase) (Homo sapiens, UniProt P00533, L858R/T790M).
T4 construct: expressed in transfected cells; host or cells: BaF3
T4 sequence (P00533 25-1210 T790M/L858R): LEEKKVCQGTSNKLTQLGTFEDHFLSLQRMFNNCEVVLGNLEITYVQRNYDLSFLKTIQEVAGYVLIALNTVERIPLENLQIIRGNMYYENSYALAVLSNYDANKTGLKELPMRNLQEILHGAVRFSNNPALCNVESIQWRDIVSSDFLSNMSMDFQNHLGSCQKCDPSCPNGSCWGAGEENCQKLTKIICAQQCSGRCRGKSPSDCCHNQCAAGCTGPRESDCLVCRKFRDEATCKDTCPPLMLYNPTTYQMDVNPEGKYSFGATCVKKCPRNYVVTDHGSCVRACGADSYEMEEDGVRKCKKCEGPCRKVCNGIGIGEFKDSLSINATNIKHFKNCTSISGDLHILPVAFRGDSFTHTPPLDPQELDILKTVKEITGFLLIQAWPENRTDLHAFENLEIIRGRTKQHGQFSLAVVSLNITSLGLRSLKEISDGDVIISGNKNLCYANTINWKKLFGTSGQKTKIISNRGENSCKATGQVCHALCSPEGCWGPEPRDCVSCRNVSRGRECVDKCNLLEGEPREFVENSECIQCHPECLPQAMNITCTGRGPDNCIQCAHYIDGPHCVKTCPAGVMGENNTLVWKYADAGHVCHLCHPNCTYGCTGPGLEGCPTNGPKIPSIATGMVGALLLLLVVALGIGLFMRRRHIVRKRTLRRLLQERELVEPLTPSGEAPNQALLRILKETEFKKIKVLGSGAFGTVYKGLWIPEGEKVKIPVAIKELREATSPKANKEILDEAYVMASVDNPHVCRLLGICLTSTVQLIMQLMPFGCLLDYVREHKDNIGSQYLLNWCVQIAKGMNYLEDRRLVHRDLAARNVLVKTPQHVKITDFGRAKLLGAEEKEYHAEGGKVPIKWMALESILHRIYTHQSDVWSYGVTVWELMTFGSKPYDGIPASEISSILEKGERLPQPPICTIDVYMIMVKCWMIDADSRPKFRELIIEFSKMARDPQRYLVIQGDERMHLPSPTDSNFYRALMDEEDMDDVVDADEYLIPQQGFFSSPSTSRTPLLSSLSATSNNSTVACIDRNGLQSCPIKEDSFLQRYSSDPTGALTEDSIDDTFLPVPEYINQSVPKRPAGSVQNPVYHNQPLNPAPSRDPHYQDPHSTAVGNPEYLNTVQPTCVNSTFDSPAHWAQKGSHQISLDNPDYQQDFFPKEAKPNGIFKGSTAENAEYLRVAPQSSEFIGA
The note with it: BaF3 cells stably transfected with EGFR L858R/T790M, read-out: IC50, growth inhibition, L858R/T790M. The procedure:
as §1, §2, §3, §4, §5

For experiment [5], the target named is T5, various mutants of kinase EGFR (BaF3 cell lines stably transfected with kinase) (Homo sapiens, UniProt P00533, T790M/C797S, form not given).
T5 construct: other: BaF3 cells stably transfected with EGFR Δ19Del/T790M/C797S; MTS, 48; other: BaF3 cell line stably transfected with EGFR Δ19Del/T790M/C7
T5 sequence (P00533 with tags, fused parts or gaps DEL746-750/T790M/C797S, form open): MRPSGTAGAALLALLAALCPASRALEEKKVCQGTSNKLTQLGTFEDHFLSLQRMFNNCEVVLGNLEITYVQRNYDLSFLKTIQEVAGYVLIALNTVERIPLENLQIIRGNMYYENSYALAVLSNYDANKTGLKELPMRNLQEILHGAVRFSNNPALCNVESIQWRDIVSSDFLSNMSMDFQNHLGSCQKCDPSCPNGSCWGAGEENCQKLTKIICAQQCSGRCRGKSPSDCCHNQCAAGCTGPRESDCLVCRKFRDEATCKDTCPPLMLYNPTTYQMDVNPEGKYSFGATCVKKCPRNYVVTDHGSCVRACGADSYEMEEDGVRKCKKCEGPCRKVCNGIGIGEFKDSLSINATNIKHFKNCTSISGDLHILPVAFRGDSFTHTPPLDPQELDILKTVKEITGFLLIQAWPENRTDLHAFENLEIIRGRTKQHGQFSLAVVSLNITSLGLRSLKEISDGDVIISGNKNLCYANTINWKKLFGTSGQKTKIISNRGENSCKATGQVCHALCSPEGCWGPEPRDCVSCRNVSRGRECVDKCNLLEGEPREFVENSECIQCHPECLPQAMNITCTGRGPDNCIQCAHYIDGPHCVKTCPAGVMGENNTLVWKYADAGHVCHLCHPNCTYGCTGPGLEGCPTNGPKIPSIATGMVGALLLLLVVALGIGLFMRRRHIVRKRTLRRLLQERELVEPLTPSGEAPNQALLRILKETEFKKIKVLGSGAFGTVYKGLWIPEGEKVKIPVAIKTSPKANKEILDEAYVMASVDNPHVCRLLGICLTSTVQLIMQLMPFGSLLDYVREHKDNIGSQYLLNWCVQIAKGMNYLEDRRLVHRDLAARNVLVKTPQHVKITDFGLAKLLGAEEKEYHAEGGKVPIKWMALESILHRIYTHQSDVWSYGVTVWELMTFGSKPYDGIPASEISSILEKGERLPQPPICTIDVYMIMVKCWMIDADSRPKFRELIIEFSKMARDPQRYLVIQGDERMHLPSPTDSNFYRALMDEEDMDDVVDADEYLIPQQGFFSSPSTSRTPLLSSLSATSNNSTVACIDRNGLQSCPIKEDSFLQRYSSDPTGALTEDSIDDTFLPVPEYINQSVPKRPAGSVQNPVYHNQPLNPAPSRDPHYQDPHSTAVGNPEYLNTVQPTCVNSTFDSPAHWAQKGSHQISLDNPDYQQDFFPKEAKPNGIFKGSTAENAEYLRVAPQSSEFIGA
The note with it: BaF3 cells stably transfected with EGFR Δ19Del/T790M/C797S, read-out: IC50, growth inhibition, Δ19Del/T790M/C797S. The procedure: as §1, §2, §3, §4, §5

The target in experiment [6] is T6, various mutants of kinase EGFR (BaF3 cell lines stably transfected with kinase) (Homo sapiens, UniProt P00533, C797S/L858R/T790M).
T6 construct: expressed in transfected cells; host or cells: BaF3
T6 sequence (P00533 25-1210 T790M/C797S/L858R): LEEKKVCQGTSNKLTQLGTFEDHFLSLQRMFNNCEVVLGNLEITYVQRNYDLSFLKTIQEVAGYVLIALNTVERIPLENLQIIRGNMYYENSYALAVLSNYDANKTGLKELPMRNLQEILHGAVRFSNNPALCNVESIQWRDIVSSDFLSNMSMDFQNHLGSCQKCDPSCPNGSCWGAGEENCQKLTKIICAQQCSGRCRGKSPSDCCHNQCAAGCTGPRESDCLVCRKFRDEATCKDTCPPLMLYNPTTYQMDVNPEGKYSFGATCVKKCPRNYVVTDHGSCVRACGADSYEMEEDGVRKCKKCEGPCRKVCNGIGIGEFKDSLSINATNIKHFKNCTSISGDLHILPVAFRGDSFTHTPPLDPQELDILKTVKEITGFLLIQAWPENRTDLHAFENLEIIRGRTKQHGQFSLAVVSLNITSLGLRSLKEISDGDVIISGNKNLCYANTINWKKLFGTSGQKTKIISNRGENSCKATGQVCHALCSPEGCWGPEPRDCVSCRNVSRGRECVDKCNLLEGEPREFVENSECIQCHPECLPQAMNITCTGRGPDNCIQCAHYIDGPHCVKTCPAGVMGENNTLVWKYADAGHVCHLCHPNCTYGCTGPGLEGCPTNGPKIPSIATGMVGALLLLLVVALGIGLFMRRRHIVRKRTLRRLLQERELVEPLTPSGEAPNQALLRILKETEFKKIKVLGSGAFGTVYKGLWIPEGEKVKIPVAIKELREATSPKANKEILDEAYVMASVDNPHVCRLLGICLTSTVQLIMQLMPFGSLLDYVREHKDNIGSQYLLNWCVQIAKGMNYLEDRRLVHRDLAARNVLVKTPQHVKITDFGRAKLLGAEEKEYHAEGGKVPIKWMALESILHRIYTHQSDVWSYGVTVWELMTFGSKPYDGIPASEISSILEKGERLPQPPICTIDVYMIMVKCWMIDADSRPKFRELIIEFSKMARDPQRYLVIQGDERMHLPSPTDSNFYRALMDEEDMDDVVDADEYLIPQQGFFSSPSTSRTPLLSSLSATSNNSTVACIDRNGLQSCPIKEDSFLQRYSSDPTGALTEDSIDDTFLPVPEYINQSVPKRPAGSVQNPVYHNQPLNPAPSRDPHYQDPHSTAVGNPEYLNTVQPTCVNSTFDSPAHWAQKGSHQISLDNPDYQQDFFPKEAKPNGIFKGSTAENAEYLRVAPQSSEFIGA
The note with it: BaF3 cells stably transfected with EGFR L858R/T790M/C797S, read-out: IC50, growth inhibition, L858R/T790M/C797S. The procedure:
as §1, §2, §3, §4, §5

T1 sequence (P00533 with tags, fused parts or gaps DEL746-750): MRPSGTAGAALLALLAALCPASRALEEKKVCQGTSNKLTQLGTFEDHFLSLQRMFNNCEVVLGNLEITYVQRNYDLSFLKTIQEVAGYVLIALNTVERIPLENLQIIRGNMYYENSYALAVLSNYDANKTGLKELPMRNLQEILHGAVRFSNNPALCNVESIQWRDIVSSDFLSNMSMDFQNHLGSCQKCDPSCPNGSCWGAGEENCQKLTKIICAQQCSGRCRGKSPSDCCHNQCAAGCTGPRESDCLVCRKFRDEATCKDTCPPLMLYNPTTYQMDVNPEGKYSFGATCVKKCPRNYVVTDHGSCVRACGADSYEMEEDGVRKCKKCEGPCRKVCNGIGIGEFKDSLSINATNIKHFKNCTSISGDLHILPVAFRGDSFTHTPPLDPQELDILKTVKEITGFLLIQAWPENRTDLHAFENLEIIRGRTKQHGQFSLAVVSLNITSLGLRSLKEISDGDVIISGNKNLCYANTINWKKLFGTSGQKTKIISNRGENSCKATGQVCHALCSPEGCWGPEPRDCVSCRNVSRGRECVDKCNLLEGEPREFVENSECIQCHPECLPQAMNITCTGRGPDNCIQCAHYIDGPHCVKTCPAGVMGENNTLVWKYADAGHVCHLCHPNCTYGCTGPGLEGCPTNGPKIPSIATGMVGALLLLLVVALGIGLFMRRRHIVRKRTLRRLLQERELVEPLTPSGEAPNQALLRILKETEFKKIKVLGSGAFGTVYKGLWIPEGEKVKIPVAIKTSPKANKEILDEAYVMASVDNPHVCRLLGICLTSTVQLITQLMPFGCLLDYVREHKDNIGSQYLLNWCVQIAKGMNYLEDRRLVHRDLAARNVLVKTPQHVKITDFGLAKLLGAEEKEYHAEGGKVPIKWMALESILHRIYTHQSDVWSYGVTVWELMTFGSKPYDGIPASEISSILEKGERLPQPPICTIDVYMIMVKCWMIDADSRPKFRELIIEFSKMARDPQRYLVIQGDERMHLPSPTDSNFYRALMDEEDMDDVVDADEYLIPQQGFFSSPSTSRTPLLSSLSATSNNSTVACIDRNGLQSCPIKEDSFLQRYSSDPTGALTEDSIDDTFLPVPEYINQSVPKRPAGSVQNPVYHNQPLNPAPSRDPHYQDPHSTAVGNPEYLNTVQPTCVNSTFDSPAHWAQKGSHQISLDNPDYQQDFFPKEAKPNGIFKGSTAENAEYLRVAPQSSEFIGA

With `C=Cc1cc(Nc2ncc(Cl)c(Nc3ccc4nccnc4c3N(C)S(C)(=O)=O)n2)c(OC(F)(F)F)cc1N1CCC(N2CCN(C)CC2)CC1` [Compound I-23], the IC50 in experiment [1], in experiment [2], in experiment [3], in experiment [4], in experiment [5] and in experiment [6] was no more than 50 nM each time.
In the case of `COc1cc(N2CCC(N3CCN(C)CC3)CC2)ccc1Nc1ncc(F)c(Nc2ccc3nccnc3c2N(C)S(C)(=O)=O)n1` [Compound I-24], the IC50 in experiment [1], in experiment [2], in experiment [3], in experiment [4], in experiment [5] and in experiment [6] was 50 to 500 nM throughout.
Regarding `COc1cc(N2CCC(N3CCN(C)CC3)CC2)c(C)cc1Nc1ncc(F)c(Nc2ccc3nccnc3c2N(C)S(C)(=O)=O)n1` [Compound I-25], the IC50 is no more than 50 nM in experiment [1]; 50 to 500 nM in experiment [2]; no more than 50 nM in experiment [3]; no more than 50 nM in experiment [4]; no more than 50 nM in experiment [5]; no more than 50 nM in experiment [6].
Regarding `CCc1cc(Nc2ncc(F)c(Nc3ccc4nccnc4c3N(C)S(C)(=O)=O)n2)c(OC)cc1N1CCC(N2CCN(C)CC2)CC1` [Compound I-26], the IC50 in experiment [1], in experiment [2], in experiment [3], in experiment [4], in experiment [5] and in experiment [6] was no more than 50 nM throughout.
As to `COc1cc(N2CCC(N3CCN(C)CC3)CC2)ccc1Nc1ncc(C#N)c(Nc2ccc3nccnc3c2N(C)S(C)(=O)=O)n1` [Compound I-27], the IC50 fell in the range of 500 to 2500 nM in experiment [1]; 500 to 2500 nM in experiment [2]; 50 to 500 nM in experiment [3]; 500 to 2500 nM in experiment [4]; 500 to 2500 nM in experiment [5]; 500 to 2500 nM in experiment [6].
On to `COc1cc(N2CCC(N3CCN(C)CC3)CC2)c(C)cc1Nc1ncc(C#N)c(Nc2ccc3nccnc3c2N(C)S(C)(=O)=O)n1` [Compound I-28], for which the IC50 in experiment [1], in experiment [2], in experiment [3], in experiment [4], in experiment [5] and in experiment [6] was 50 to 500 nM in each case.
For `CCc1cc(Nc2ncc(C#N)c(Nc3ccc4nccnc4c3N(C)S(C)(=O)=O)n2)c(OC)cc1N1CCC(N2CCN(C)CC2)CC1` [Compound I-29], the IC50 in experiment [1] was 50 to 500 nM; in experiment [2], 50 to 500 nM; in experiment [3], 50 to 500 nM; in experiment [4], 50 to 500 nM; in experiment [5], 50 to 500 nM; in experiment [6], no more than 50 nM.
On to `COc1cc(N2CCC(N3CCN(C)CC3)CC2)ccc1Nc1ncc([N+](=O)[O-])c(Nc2ccc3nccnc3c2N(C)S(C)(=O)=O)n1` [Compound I-30], for which the IC50 in experiment [1] fell in the range of 500 to 2500 nM; in experiment [2], 500 to 2500 nM; in experiment [3], 500 to 2500 nM; in experiment [4], 50 to 500 nM; in experiment [5], 50 to 500 nM; in experiment [6] it was 500 to 2500 nM.
For the compound `COc1cc(N2CCC(N3CCN(C)CC3)CC2)c(C)cc1Nc1ncc([N+](=O)[O-])c(Nc2ccc3nccnc3c2N(C)S(C)(=O)=O)n1` [Compound I-31], the IC50 in experiment [1] was 50 to 500 nM; in experiment [2], 50 to 500 nM; in experiment [3], no more than 50 nM; in experiment [4] it was no more than 50 nM; in experiment [5] it was no more than 50 nM; in experiment [6], no more than 50 nM.
Turning to `CCc1cc(Nc2ncc([N+](=O)[O-])c(Nc3ccc4nccnc4c3N(C)S(C)(=O)=O)n2)c(OC)cc1N1CCC(N2CCN(C)CC2)CC1` [Compound I-32], the IC50 in experiment [1], in experiment [2], in experiment [3], in experiment [4], in experiment [5] and in experiment [6] was no more than 50 nM in each case.
`COc1cc(N2CCC(N3CCN(C)CC3)CC2)ccc1Nc1ncc(C(F)(F)F)c(Nc2ccc3nccnc3c2N(C)S(C)(=O)=O)n1` [Compound I-33]: the IC50 in experiment [1] was 50 to 500 nM; in experiment [2], no more than 50 nM; in experiment [3], no more than 50 nM; in experiment [4], no more than 50 nM; in experiment [5], no more than 50 nM; in experiment [6], 50 to 500 nM.
Regarding `COc1cc(N2CCC(N3CCN(C)CC3)CC2)c(C)cc1Nc1ncc(C(F)(F)F)c(Nc2ccc3nccnc3c2N(C)S(C)(=O)=O)n1` [Compound I-34], the IC50 in experiment [1], in experiment [2], in experiment [3], in experiment [4], in experiment [5] and in experiment [6] was no more than 50 nM throughout.
Take `CCc1cc(Nc2ncc(C(F)(F)F)c(Nc3ccc4nccnc4c3N(C)S(C)(=O)=O)n2)c(OC)cc1N1CCC(N2CCN(C)CC2)CC1` [Compound I-35]: the IC50 in experiment [1], in experiment [2], in experiment [3], in experiment [4], in experiment [5] and in experiment [6] was no more than 50 nM in each case.
Turning to `Cc1cc(Nc2ncc(Br)c(Nc3ccc4nccnc4c3N(C)S(C)(=O)=O)n2)c(OC(C)C)cc1C1CCN(C)CC1` [Compound I-37], the IC50 in experiment [1] was 500 to 2500 nM; in experiment [2], 50 to 500 nM; in experiment [3] it was 500 to 2500 nM; in experiment [4], 50 to 500 nM; in experiment [5] it was no more than 50 nM; in experiment [6] it was 50 to 500 nM.
Turning to `COc1cc(N2CCN(C)CC2)ccc1Nc1ncc(Br)c(Nc2ccc3nccnc3c2N(C)S(C)(=O)=O)n1` [Compound I-38], the IC50 in experiment [1] is 50 to 500 nM; in experiment [2], no more than 50 nM; in experiment [3], 50 to 500 nM; in experiment [4], no more than 50 nM; in experiment [5] it was no more than 50 nM; in experiment [6] it was no more than 50 nM.
On to `CCOc1cc(N2CCN(C)CC2)ccc1Nc1ncc(Br)c(Nc2ccc3nccnc3c2N(C)S(C)(=O)=O)n1` [Compound I-39], for which the IC50 in experiment [1] was 500 to 2500 nM; in experiment [2], 50 to 500 nM; in experiment [3], 500 to 2500 nM; in experiment [4], 50 to 500 nM; in experiment [5], no more than 50 nM; in experiment [6] it was no more than 50 nM.
Consider `CN1CCN(c2ccc(Nc3ncc(Br)c(Nc4ccc5nccnc5c4N(C)S(C)(=O)=O)n3)cc2)CC1` [Compound I-40], for which the IC50 in experiment [1], in experiment [2], in experiment [3], in experiment [4], in experiment [5] and in experiment [6] was no more than 50 nM in each case.
On to `COc1cc(N2CCC(N3CCCC3)CC2)ccc1Nc1ncc(Br)c(Nc2ccc3nccnc3c2N(C)S(C)(=O)=O)n1` [Compound I-41], for which the IC50 in experiment [1], in experiment [2], in experiment [3], in experiment [4], in experiment [5] and in experiment [6] was no more than 50 nM each time.
As to `COc1cc(N2CCC(N(C)C)C2)ccc1Nc1ncc(Br)c(Nc2ccc3nccnc3c2N(C)S(C)(=O)=O)n1` (stereo not drawn) [Compound I-43], the IC50 in experiment [1] is 50 to 500 nM; in experiment [2], no more than 50 nM; in experiment [3], 50 to 500 nM; in experiment [4], no more than 50 nM; in experiment [5], no more than 50 nM; in experiment [6], no more than 50 nM.
Take `COc1cc(N2CCC(O)CC2)ccc1Nc1ncc(Br)c(Nc2ccc3nccnc3c2N(C)S(C)(=O)=O)n1` [Compound I-44]: the IC50 in experiment [1] is 50 to 500 nM; in experiment [2], no more than 50 nM; in experiment [3], 50 to 500 nM; in experiment [4], no more than 50 nM; in experiment [5], no more than 50 nM; in experiment [6], no more than 50 nM.
